Values joined by “and” are separate entries in the source; they are usually repeats but may differ in a detail not shown here. Equal values may be shown once. Inconclusive results and toxic doses are left out. How the source made its calls: active means survival T/C of 150% or more; inactive means T/C below 125% in these data.
System: CD2F1 mice, L1210 leukemia ip, survival T/C
Test: NCI In Vivo Anticancer Drug Screen. Data for tumor model L1210 Leukemia (intraperitoneal) in CD2F1 (CDF1) mice
Details: higher = longer survival
Method in brief: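 Mice carrying a transplanted tumor received test compound or vehicle alone. The value is the measurement in the treated group divided by that in the vehicle-treated control group.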

Measured: T/C

CC1CCC(NC(=O)N(CCCl)N=O)CC1 (stereo unspecified)
256 % of control and 103 % of control: endpoint: mean survival time, dose: 32.0 mg/kg/injection, schedule: Q01DX009 (ip), vehicle: saline + alcohol
active: endpoint: mean survival time, dose: 4.0 mg/kg/injection, schedule: Q01DX009 (ip), vehicle: saline + alcohol 151 % of control and 185 % of control | endpoint: mean survival time, dose: 5.0 mg/kg/injection, schedule: Q04DX003 (ip), vehicle: other 192 % of control | endpoint: mean survival time, dose: 8.0 mg/kg/injection, schedule: Q01DX009 (ip), vehicle: saline + alcohol 175 % of control and 229 % of control | endpoint: mean survival time, dose: 8.0 mg/kg/injection, schedule: Q08DX002 (ip), vehicle: saline + alcohol 206 % of control | endpoint: mean survival time, dose: 10.0 mg/kg/injection, schedule: Q04DX003 (ip), vehicle: other 371 % of control | endpoint: mean survival time, dose: 12.5 mg/kg/injection, schedule: Q01DX001 (ip), vehicle: distilled water + Tween-80 340 % of control | endpoint: mean survival time, dose: 16.0 mg/kg/injection, schedule: Q01DX001 (ip), vehicle: other 283 % of control | endpoint: mean survival time, dose: 16.0 mg/kg/injection, schedule: Q01DX009 (ip), vehicle: saline + alcohol 207 % of control | endpoint: mean survival time, dose: 16.0 mg/kg/injection, schedule: Q08DX002 (ip), vehicle: saline + alcohol 289 % of control | endpoint: mean survival time, dose: 20.0 mg/kg/injection, schedule: Q04DX003 (ip), vehicle: other 392 % of control | endpoint: mean survival time, dose: 24.0 mg/kg/injection, schedule: Q08DX002 (ip), vehicle: saline + alcohol 550 % of control | endpoint: mean survival time, dose: 25.0 mg/kg/injection, schedule: Q01DX001 (ip), vehicle: distilled water + Tween-80 406 % of control | endpoint: mean survival time, dose: 25.0 mg/kg/injection, schedule: Q01DX001 (ip), vehicle: saline with Tween-80 393 % of control | endpoint: mean survival time, dose: 27.0 mg/kg/injection, schedule: Q01DX001 (ip), vehicle: saline with Tween-80 813 % of control | endpoint: mean survival time, dose: 32.0 mg/kg/injection, schedule: Q01DX001 (ip), vehicle: other 357 % of control | endpoint: mean survival time, dose: 32.0 mg/kg/injection, schedule: Q01DX001 (ip), vehicle: saline + alcohol 451 % of control | endpoint: mean survival time, dose: 40.0 mg/kg/injection, schedule: Q01DX001 (ip), vehicle: saline with Tween-80 555 % of control | endpoint: mean survival time, dose: 50.0 mg/kg/injection, schedule: Q01DX001 (ip), vehicle: saline + alcohol 158 % of control | endpoint: mean survival time, dose: 50.0 mg/kg/injection, schedule: Q01DX001 (ip), vehicle: saline with Tween-80 213 % of control and 473 % of control | endpoint: mean survival time, dose: 64.0 mg/kg/injection, schedule: Q01DX001 (ip), vehicle: other 204 % of control | endpoint: median survival time, dose: 6.25 mg/kg/injection, schedule: Q01DX001 (ip), vehicle: other 158 % of control | endpoint: median survival time, dose: 9.0 mg/kg/injection, schedule: Q04DX002 (ip), vehicle: saline + Tween-80 + alcohol 180 % of control | endpoint: median survival time, dose: 12.5 mg/kg/injection, schedule: Q01DX001 (ip), vehicle: other 159 % of control and 297 % of control | endpoint: median survival time, dose: 14.4 mg/kg/injection, schedule: Q01DX001 (ip), vehicle: saline + alcohol 718 % of control | endpoint: median survival time, dose: 14.4 mg/kg/injection, schedule: Q04DX002 (ip), vehicle: saline + alcohol 622 % of control | endpoint: median survival time, dose: 15.0 mg/kg/injection, schedule: Q04DX002 (ip), vehicle: saline + Tween-80 + alcohol 351 % of control | endpoint: median survival time, dose: 24.0 mg/kg/injection, schedule: Q01DX001 (ip), vehicle: other 581 % of control | endpoint: median survival time, dose: 24.0 mg/kg/injection, schedule: Q01DX001 (ip), vehicle: saline + alcohol 718 % of control | endpoint: median survival time, dose: 24.0 mg/kg/injection, schedule: Q04DX002 (ip), vehicle: saline + alcohol 623 % of control | endpoint: median survival time, dose: 25.0 mg/kg/injection, schedule: Q01DX001 (ip), vehicle: other 297 % of control and 340 % of control | endpoint: median survival time, dose: 25.0 mg/kg/injection, schedule: Q04DX002 (ip), vehicle: saline + Tween-80 + alcohol 244 % of control | endpoint: median survival time, dose: 36.0 mg/kg/injection, schedule: Q01DX001 (ip), vehicle: other 580 % of control | endpoint: median survival time, dose: 40.0 mg/kg/injection, schedule: Q01DX001 (ip), vehicle: saline + alcohol 720 % of control | endpoint: median survival time, dose: 40.0 mg/kg/injection, schedule: Q01DX001 (ip), vehicle: saline with Tween-80 157 % of control | endpoint: median survival time, dose: 40.0 mg/kg/injection, schedule: Q01DX001 (oral), vehicle: saline with Tween-80 393 % of control and 590 % of control and 983 % of control | endpoint: median survival time, dose: 40.0 mg/kg/injection, schedule: Q04DX002 (ip), vehicle: saline + alcohol 286 % of control | endpoint: median survival time, dose: 42.0 mg/kg/injection, schedule: Q04DX002 (ip), vehicle: saline + Tween-80 + alcohol 170 % of control | endpoint: median survival time, dose: 50.0 mg/kg/injection, schedule: Q01DX001 (ip), vehicle: other 158 % of control and 193 % of control | endpoint: median survival time, dose: 50.0 mg/kg/injection, schedule: Q01DX001 (oral), vehicle: saline with Tween-80 193 % of control and 983 % of control (2×) | endpoint: median survival time, dose: 60.0 mg/kg/injection, schedule: Q01DX001 (oral), vehicle: saline with Tween-80 185 % of control and 983 % of control (2×) | endpoint: median survival time, dose: 66.7 mg/kg/injection, schedule: Q01DX001 (ip), vehicle: saline + alcohol 328 % of control | endpoint: median survival time, dose: 66.7 mg/kg/injection, schedule: Q01DX001 (ip), vehicle: saline with Tween-80 463 % of control
inactive: endpoint: mean survival time, dose: 0.5 mg/kg/injection, schedule: Q01DX009 (ip), vehicle: saline + alcohol 96 % of control | endpoint: mean survival time, dose: 1.0 mg/kg/injection, schedule: Q01DX009 (ip), vehicle: saline + alcohol 109 % of control | endpoint: mean survival time, dose: 2.0 mg/kg/injection, schedule: Q01DX009 (ip), vehicle: saline + alcohol 109 % of control | endpoint: mean survival time, dose: 3.12 mg/kg/injection, schedule: Q01DX001 (ip), vehicle: other 105 % of control and 110 % of control | endpoint: mean survival time, dose: 3.13 mg/kg/injection, schedule: Q01DX001 (ip), vehicle: saline with Tween-80 103 % of control | endpoint: mean survival time, dose: 4.0 mg/kg/injection, schedule: Q01DX001 (ip), vehicle: other 107 % of control | endpoint: mean survival time, dose: 4.0 mg/kg/injection, schedule: Q01DX001 (ip), vehicle: saline + alcohol 104 % of control | endpoint: mean survival time, dose: 6.25 mg/kg/injection, schedule: Q01DX001 (ip), vehicle: saline + alcohol 98 % of control | endpoint: mean survival time, dose: 6.25 mg/kg/injection, schedule: Q01DX001 (ip), vehicle: saline with Tween-80 114 % of control | endpoint: mean survival time, dose: 12.5 mg/kg/injection, schedule: Q01DX001 (ip), vehicle: saline + alcohol 104 % of control | endpoint: mean survival time, dose: 16.0 mg/kg/injection, schedule: Q01DX001 (ip), vehicle: saline + alcohol 120 % of control | endpoint: mean survival time, dose: 24.0 mg/kg/injection, schedule: Q01DX009 (ip), vehicle: saline + alcohol 107 % of control | endpoint: mean survival time, dose: 25.0 mg/kg/injection, schedule: Q01DX001 (ip), vehicle: saline + alcohol 95 % of control | endpoint: mean survival time, dose: 48.0 mg/kg/injection, schedule: Q01DX009 (ip), vehicle: saline + alcohol 96 % of control | endpoint: mean survival time, dose: 64.0 mg/kg/injection, schedule: Q01DX009 (ip), vehicle: saline + alcohol 86 % of control | endpoint: median survival time, dose: 3.12 mg/kg/injection, schedule: Q01DX001 (ip), vehicle: other 121 % of control and 110 % of control | endpoint: median survival time, dose: 3.12 mg/kg/injection, schedule: Q01DX001 (ip), vehicle: saline 98 % of control and 101 % of control | endpoint: median survival time, dose: 6.25 mg/kg/injection, schedule: Q01DX001 (ip), vehicle: saline 98 % of control and 103 % of control | endpoint: median survival time, dose: 12.5 mg/kg/injection, schedule: Q01DX001 (ip), vehicle: saline 103 % of control | endpoint: median survival time, dose: 14.4 mg/kg/injection, schedule: Q01DX001 (ip), vehicle: saline with Tween-80 121 % of control | endpoint: median survival time, dose: 60.0 mg/kg/injection, schedule: Q01DX001 (ip), vehicle: other 119 % of control | endpoint: median survival time, dose: 100.0 mg/kg/injection, schedule: Q01DX001 (ip), vehicle: other 116 % of control

O=C(O)C1(NO)CCCCC1
inactive: endpoint: mean survival time, dose: 12.5 mg/kg/injection, schedule: Q01DX009 (ip), vehicle: Klucel (hydroxypropylcellulose) (HPC) 102 % of control | endpoint: mean survival time, dose: 25.0 mg/kg/injection, schedule: Q01DX009 (ip), vehicle: Klucel (hydroxypropylcellulose) (HPC) 101 % of control | endpoint: mean survival time, dose: 50.0 mg/kg/injection, schedule: Q01DX009 (ip), vehicle: Klucel (hydroxypropylcellulose) (HPC) 103 % of control | endpoint: mean survival time, dose: 100.0 mg/kg/injection, schedule: Q01DX009 (ip), vehicle: Klucel (hydroxypropylcellulose) (HPC) 100 % of control | endpoint: mean survival time, dose: 200.0 mg/kg/injection, schedule: Q01DX009 (ip), vehicle: Klucel (hydroxypropylcellulose) (HPC) 97 % of control | endpoint: mean survival time, dose: 400.0 mg/kg/injection, schedule: Q01DX009 (ip), vehicle: Klucel (hydroxypropylcellulose) (HPC) 102 % of control
